Test results reported in US20180103668A1, “CYCLOHEXANECARBOXYLIC ACIDS FOR SELECTIVE TASTE MASKING” (INTERNATIONAL FLAVORS & FRAGRANCES INC., priority 2015, published 2018).

What was measured:
[1] = Bitter taste-masking effect; conditions: for Intensity Score (bitter taste-masking effect): 10 ppm in water, caffeine 0.07%, scale 0 to 10: 0=total masking, 2=intense masking, 5=moderate masking, 8=weak masking, 10=no masking; for bitter taste-masking effect (in words): 10 ppm, caffeine solution 0.07%
Description: (§1) A series of cyclohexanecarboxylic acid solutions in the following were prepared (10 ppm in water):
(§2) Caffeine solution (0.07% by weight in water) was prepared and used to evaluate the bitter taste-masking effect of cyclohexanecarboxylic acids, which is expressed using an intensity scale of 0 to 10, where 0=total masking, 2=intense masking, 5=moderate masking, 8=weak masking and 10=no masking.

[2] = Sour taste-masking effect; conditions: 10 ppm in water; scale 0 to 10: 0=total masking, 2=intense masking, 5=moderate masking, 8=weak masking, 10=no masking; same in both lactic acid and citric acid
Description: as §1
as §2, with “Lactic acid solution (0.09% by weight in water) and citric acid” for “Caffeine”, “were” for “was”, “used, respectively,” for “used”, “sour” for “bitter”

SMILES	Intensity Score (bitter taste-masking effect) [1]	bitter taste-masking effect (in words) [1]	Intensity Score (sour taste-masking effect) [2]
O=C(/C=C/c1ccc(O)c(O)c1)OC1C[C@@](O)(C(=O)O)C[C@@H](OC(=O)/C=C/c2ccc(O)c(O)c2)[C@@H]1O (stereo partly drawn) [Formula V, (1α,3R,4α,5R)-3,5-bis[[3-(3,4-dihydroxyphenyl)-1-oxo-2-propen-1-yl]oxy]-1,4-dihydroxy-cyclohexanecarboxylic acid]	3	particularly intense and lasting bitter taste-masking effect	8
O=C(/C=C/c1ccc(O)c(O)c1)O[C@H]1[C@H](O)C[C@](O)(C(=O)O)C[C@H]1OC(=O)/C=C/c1ccc(O)c(O)c1 [Formula VI, (1R,3R,4S,5R)-3,4-bis[[3-(3,4-dihydroxyphenyl)-1-oxo-2-propen-1-yl]oxy]-1,5-dihydroxy-cyclohexanecarboxylic acid]	2	particularly intense and lasting bitter taste-masking effect	8
O=C(/C=C/c1ccc(O)c(O)c1)O[C@@H]1[C@H](O)C[C@@](O)(C(=O)O)C[C@H]1OC(=O)/C=C/c1ccc(O)c(O)c1 [Formula IV, (1S,3R,4R,5R)-3,4-bis[[3-(3,4-dihydroxyphenyl)-1-oxo-2-propenyl]oxy]-1,5-dihydroxy-cyclohexanecarboxylic acid]	2	particularly intense and lasting bitter taste-masking effect	8
